pIC50: −log10 of the molar value. Some results are limits rather than exact numbers.

Experimental findings from patent publication US12281102B2, “Inhibitors of APOL1 and methods of using same” (Vertex Pharmaceuticals Incorporated, priority 2020, dated 2025) are described below.

The target in one test is T1, G1 APOL1 (Homo sapiens, UniProt O14791, I384M/S342G).
T1 construct: expressed in transfected cells
T1 sequence (O14791 28-398 S342G/I384M): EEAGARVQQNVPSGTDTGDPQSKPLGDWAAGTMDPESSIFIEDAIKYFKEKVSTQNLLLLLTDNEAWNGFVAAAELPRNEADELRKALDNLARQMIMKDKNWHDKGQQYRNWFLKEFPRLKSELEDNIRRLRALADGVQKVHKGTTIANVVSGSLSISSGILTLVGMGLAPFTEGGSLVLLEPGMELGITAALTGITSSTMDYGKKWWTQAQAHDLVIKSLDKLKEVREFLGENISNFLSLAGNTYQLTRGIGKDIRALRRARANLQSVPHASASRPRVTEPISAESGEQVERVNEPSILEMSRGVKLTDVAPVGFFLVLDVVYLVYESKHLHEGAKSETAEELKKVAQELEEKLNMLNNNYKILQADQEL
The experiment in a line: Acute APOL1 Thallium Assay with inducible stable clones of HEK 293 cells. Type of test: cell-based. Particulars: HEK 293 T-Rex inducible stable clone expressing G1 APOL1; read-out: Thallium Assay (IC50). The method, boiled down: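 A tetracycline-inducible HEK293 T-Rex clone (G1 DC3.25) expressing G1 APOL1 was plated at 26,000 cells/well, with tetracycline added at plating to induce expression. Cells were loaded with an AM-ester thallium-sensitive dye and stimulated with Tl+. Pore activity was read as the FLIPR Tetra fluorescence increase from Tl+ influx.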
On to `CCS(=O)(=O)NCC(=O)N[C@H]1C[C@H](c2c(-c3ccc(F)cc3)[nH]c3c(F)cc(F)cc32)C1` [Compound 108], for which the pIC50 was < 6.00.

For the compound `O=C(CCN1CCCC1)N[C@H]1C[C@H](c2c(-c3ccc(F)cc3)[nH]c3c(F)cc(F)cc32)C1` [Compound 109], the pIC50 was < 6.00.

`CN1CCC(CC(=O)N[C@H]2C[C@H](c3c(-c4ccc(F)cc4)[nH]c4c(F)cc(F)cc43)C2)C1` (some centres unmarked) [Compound 110]: the pIC50 was < 6.00.

As to `O=C(CN1CCCC1)N[C@H]1C[C@H](c2c(-c3ccc(F)cc3)[nH]c3c(F)cc(F)cc32)C1` [Compound 112], the pIC50 is < 6.00.

As to `O=C(CC1(O)CCCCC1)N[C@H]1C[C@H](c2c(-c3ccc(F)cc3)[nH]c3c(F)cc(F)cc32)C1` [Compound 113], the negative logarithm of the IC50 (pIC50) is < 6.00.

Take `O=C(CCN1CCCC1=O)N[C@H]1C[C@H](c2c(-c3ccc(F)cc3)[nH]c3c(F)cc(F)cc32)C1` [Compound 114]: the negative logarithm of the IC50 (pIC50) is < 6.00.

For the compound `Cn1nccc1CC(=O)N[C@H]1C[C@H](c2c(-c3ccc(F)cc3)[nH]c3c(F)cc(F)cc32)C1` [Compound 115], the pIC50 is < 6.00.

Consider `NS(=O)(=O)CCC(=O)N[C@H]1C[C@H](c2c(-c3ccc(F)cc3)[nH]c3c(F)cc(F)cc32)C1` [Compound 116], for which the pIC50 is 6.00 to 6.60.

For `CN1CCC(CC(=O)N[C@H]2C[C@H](c3c(-c4ccc(F)cc4)[nH]c4c(F)cc(F)cc43)C2)CC1` [Compound 117], the pIC50 was < 6.00.

In the case of `O=C(CC1CCCOC1)N[C@H]1C[C@H](c2c(-c3ccc(F)cc3)[nH]c3c(F)cc(F)cc32)C1` (some centres unmarked) [Compound 118], the pIC50 was < 6.00.

Regarding `CS(=O)(=O)CCC(=O)N[C@H]1C[C@H](c2c(-c3ccc(F)cc3)[nH]c3c(F)cc(F)cc32)C1` [Compound 119], the pIC50 was < 6.00.

As for `O=C(CC(=O)N1CCOCC1)N[C@H]1C[C@H](c2c(-c3ccc(F)cc3)[nH]c3c(F)cc(F)cc32)C1` [Compound 120], the pIC50 is < 6.00.

For the compound `O=C(CN1CCOCC1)N[C@H]1C[C@H](c2c(-c3ccc(F)cc3)[nH]c3c(F)cc(F)cc32)C1` [Compound 121], the pIC50 was < 6.00.

Regarding `CN(C)CCC(=O)N[C@H]1C[C@H](c2c(-c3ccc(F)cc3)[nH]c3c(F)cc(F)cc32)C1` [Compound 122], the pIC50 is < 6.00.

`CN(C)C(=O)CCC(=O)N[C@H]1C[C@H](c2c(-c3ccc(F)cc3)[nH]c3c(F)cc(F)cc32)C1` [Compound 123]: the pIC50 is 6.00 to 6.60.

On to `O=C(CCN1CCCCC1)N[C@H]1C[C@H](c2c(-c3ccc(F)cc3)[nH]c3c(F)cc(F)cc32)C1` [Compound 124], for which the pIC50 is < 6.00.

With `COCCC(=O)N[C@H]1C[C@H](c2c(-c3ccc(F)cc3)[nH]c3c(F)cc(F)cc32)C1` [Compound 125], the pIC50 is > 6.60.

On to `Cc1nccn1CC(=O)N[C@H]1C[C@H](c2c(-c3ccc(F)cc3)[nH]c3c(F)cc(F)cc32)C1` [Compound 126], for which the pIC50 is < 6.00.

For the compound `CC1(C)CCC(C(=O)N[C@H]2C[C@H](c3c(-c4ccc(F)cc4)[nH]c4c(F)cc(F)cc43)C2)N1` (some centres unmarked) [Compound 127], the pIC50 is < 6.00.

Take `O=C1CC(C(=O)N[C@H]2C[C@H](c3c(-c4ccc(F)cc4)[nH]c4c(F)cc(F)cc43)C2)C(=O)N1` (some centres unmarked) [Compound 128]: the pIC50 is > 6.60.

For the compound `N#CCC(=O)N[C@H]1C[C@H](c2c(-c3ccc(F)cc3)[nH]c3c(F)cc(F)cc32)C1` [Compound 129], the pIC50 is > 6.60.

For `CC(F)(F)C(=O)N[C@H]1C[C@H](c2c(-c3ccc(F)cc3)[nH]c3c(F)cc(F)cc32)C1` [Compound 130], the negative-log IC50 (pIC50) is 6.00 to 6.60.

As for `O=C(N[C@H]1C[C@H](c2c(-c3ccc(F)cc3)[nH]c3c(F)cc(F)cc32)C1)C1COC1` [Compound 131], the pIC50 is 6.00 to 6.60.

For `O=C1CC(CC(=O)N[C@H]2C[C@H](c3c(-c4ccc(F)cc4)[nH]c4c(F)cc(F)cc43)C2)CC(=O)N1` [Compound 132], the pIC50 is < 6.00.

With `CC(C)(O)C(=O)N[C@H]1C[C@H](c2c(-c3ccc(F)cc3)[nH]c3c(F)cc(F)cc32)C1` [Compound 133], the pIC50 is > 6.60.

Regarding `CNCCC(=O)N[C@H]1C[C@H](c2c(-c3ccc(F)cc3)[nH]c3c(F)cc(F)cc32)C1` [Compound 134], the pIC50 is 6.00 to 6.60.

In the case of `O=C(N[C@H]1C[C@H](c2c(-c3ccc(F)cc3)[nH]c3c(F)cc(F)cc32)C1)C1(O)CC1` [Compound 135], the pIC50 was > 6.60.

As to `O=C(CO)N[C@H]1C[C@H](c2c(-c3ccc(F)cc3)[nH]c3c(F)cc(F)cc32)C1` [Compound 136], the pIC50 is > 6.60.

Regarding `O=C(CC1COC1)N[C@H]1C[C@H](c2c(-c3ccc(F)cc3)[nH]c3c(F)cc(F)cc32)C1` [Compound 138], the pIC50 was < 6.00.

Turning to `O=C(Cn1cnnc1)N[C@H]1C[C@H](c2c(-c3ccc(F)cc3)[nH]c3c(F)cc(F)cc32)C1` [Compound 139], the pIC50 was < 6.00.

As for `O=C1CC(C(=O)N[C@H]2C[C@H](c3c(-c4ccc(F)cc4)[nH]c4c(F)cc(F)cc43)C2)CN1` (some centres unmarked) [Compound 140], the pIC50 is < 6.00.

Regarding `CNC1(C(=O)N[C@H]2C[C@H](c3c(-c4ccc(F)cc4)[nH]c4c(F)cc(F)cc43)C2)CC1` [Compound 141], the pIC50 was 6.00 to 6.60.

As to `O=C(N[C@H]1C[C@H](c2c(-c3ccc(F)cc3)[nH]c3c(F)cc(F)cc32)C1)C1(CO)CC1` [Compound 142], the pIC50 was > 6.60.

On to `Cn1cnc(CC(=O)N[C@H]2C[C@H](c3c(-c4ccc(F)cc4)[nH]c4c(F)cc(F)cc43)C2)c1` [Compound 143], for which the pIC50 was 6.00 to 6.60.

As for `O=C(N[C@H]1C[C@H](c2c(-c3ccc(F)cc3)[nH]c3c(F)cc(F)cc32)C1)C(F)F` [Compound 144], the pIC50 is > 6.60.

With `O=S(=O)(N[C@H]1C[C@H](c2c(-c3ccc(F)cc3)[nH]c3c(F)cc(F)cc32)C1)c1cn[nH]c1` [Compound 145, N-[(1r,3r)-3-[5,7-difluoro-2-(4-fluorophenyl)-1H-indol-3-yl]cyclobutyl]-1H-pyrazole-4-sulfonamide], the pIC50 was 6.00 to 6.60.

`O=S(=O)(CCO)N[C@H]1C[C@H](c2c(-c3ccc(F)cc3)[nH]c3c(F)cc(F)cc32)C1` [Compound 146]: the pIC50 is > 6.60.

On to `CCS(=O)(=O)N[C@H]1C[C@H](c2c(-c3ccc(F)cc3)[nH]c3c(F)cc(F)cc32)C1` [Compound 147], for which the pIC50 was > 6.60.

As to `Cn1ccnc1S(=O)(=O)N[C@H]1C[C@H](c2c(-c3ccc(F)cc3)[nH]c3c(F)cc(F)cc32)C1` [Compound 148], the negative logarithm of the IC50 (pIC50) was < 6.00.

Consider `CC(C)S(=O)(=O)N[C@H]1C[C@H](c2c(-c3ccc(F)cc3)[nH]c3c(F)cc(F)cc32)C1` [Compound 149], for which the pIC50 was 6.00 to 6.60.

For `O=S(=O)(N[C@H]1C[C@H](c2c(-c3ccc(F)cc3)[nH]c3c(F)cc(F)cc32)C1)c1c[nH]cn1` [Compound 150], the pIC50 is 6.00 to 6.60.

On to `O=C1NC(=O)C(CCS(=O)(=O)N[C@H]2C[C@H](c3c(-c4ccc(F)cc4)[nH]c4c(F)cc(F)cc43)C2)N1` (some centres unmarked) [Compound 151], for which the negative-log IC50 (pIC50) was 6.00 to 6.60.

Regarding `CCC(C)S(=O)(=O)N[C@H]1C[C@H](c2c(-c3ccc(F)cc3)[nH]c3c(F)cc(F)cc32)C1` (some centres unmarked) [Compound 152], the pIC50 was < 6.00.

As to `O=c1[nH]c2ccc(S(=O)(=O)N[C@H]3C[C@H](c4c(-c5ccc(F)cc5)[nH]c5c(F)cc(F)cc54)C3)cc2[nH]1` [Compound 153], the pIC50 was < 6.00.

Take `O=S(=O)(N[C@H]1C[C@H](c2c(-c3ccc(F)cc3)[nH]c3c(F)cc(F)cc32)C1)c1n[nH]c2ncccc12` [Compound 154]: the pIC50 is < 6.00.

For the compound `O=c1ccc2cc(S(=O)(=O)N[C@H]3C[C@H](c4c(-c5ccc(F)cc5)[nH]c5c(F)cc(F)cc54)C3)ccc2[nH]1` [Compound 155], the pIC50 is < 6.00.

Consider `O=S(=O)(N[C@H]1C[C@H](c2c(-c3ccc(F)cc3)[nH]c3c(F)cc(F)cc32)C1)C1CCOCC1` [Compound 156], for which the pIC50 is < 6.00.

For `N[C@H]1C[C@H](Cc2c(-c3ccc(F)cc3)[nH]c3c(F)cc(F)cc23)C1` [Compound 157, trans-3-[[5,7-difluoro-2-(4-fluorophenyl)-1H-indol-3-yl]methyl]cyclobutanamine], the negative-log IC50 (pIC50) was > 6.60.

As for `N[C@H]1C[C@@H](Cc2c(-c3ccc(F)cc3)[nH]c3c(F)cc(F)cc23)C1` [Compound 158, cis-3-[[5,7-difluoro-2-(4-fluorophenyl)-1H-indol-3-yl]methyl]cyclobutanamine], the pIC50 is > 6.60.

As for `O=C(N[C@H]1C[C@H](Cc2c(-c3ccc(F)cc3)[nH]c3c(F)cc(F)cc23)C1)C1(CO)CC1` [Compound 159, N-[3-[[5,7-difluoro-2-(4-fluorophenyl)-1H-indol-3-yl]methyl]cyclobutyl]-1-(hydroxymethyl)cyclopropanecarboxamide], the pIC50 is < 6.00.

In the case of `CC(C)(O)CC(=O)NC1CC(Cc2c(-c3ccc(F)cc3)[nH]c3c(F)cc(F)cc23)C1` (centres unmarked) [Compound 160, N-[3-[[5,7-difluoro-2-(4-fluorophenyl)-1H-indol-3-yl]methyl]cyclobutyl]-3-hydroxy-3-methylbutanamide], the pIC50 is 6.00 to 6.60.

For `C[C@H](O)C(=O)NC1CC(Cc2c(-c3ccc(F)cc3)[nH]c3c(F)cc(F)cc23)C1` (some centres unmarked) [Compound 161], the pIC50 is 6.00 to 6.60.

Staying with this test, now noted: Thallium Assay (IC50), HEK 293 T-Rex inducible stable clone expressing G1 APOL1.
As for `NCC(=O)N[C@H]1C[C@H](c2c(-c3ccc(F)cc3)[nH]c3c(F)cc(F)cc32)C1` [Compound 137], the pIC50 is > 6.60.
